Consider 15 molecules from paper PMC3187749, “Discovery of Diverse Small Molecule Chemotypes with Cell-Based PKD1 Inhibitory Activity” (PLoS ONE, 2011).

Read-outs that look alike come from different tables or passages of the source.

In assay [1] the target is T1, recombinant human PKD1 (Homo sapiens, UniProt Q15139).
T1 construct: His; purchased Millipore (Billerica, MA)
T1 sequence (Q15139 1-912): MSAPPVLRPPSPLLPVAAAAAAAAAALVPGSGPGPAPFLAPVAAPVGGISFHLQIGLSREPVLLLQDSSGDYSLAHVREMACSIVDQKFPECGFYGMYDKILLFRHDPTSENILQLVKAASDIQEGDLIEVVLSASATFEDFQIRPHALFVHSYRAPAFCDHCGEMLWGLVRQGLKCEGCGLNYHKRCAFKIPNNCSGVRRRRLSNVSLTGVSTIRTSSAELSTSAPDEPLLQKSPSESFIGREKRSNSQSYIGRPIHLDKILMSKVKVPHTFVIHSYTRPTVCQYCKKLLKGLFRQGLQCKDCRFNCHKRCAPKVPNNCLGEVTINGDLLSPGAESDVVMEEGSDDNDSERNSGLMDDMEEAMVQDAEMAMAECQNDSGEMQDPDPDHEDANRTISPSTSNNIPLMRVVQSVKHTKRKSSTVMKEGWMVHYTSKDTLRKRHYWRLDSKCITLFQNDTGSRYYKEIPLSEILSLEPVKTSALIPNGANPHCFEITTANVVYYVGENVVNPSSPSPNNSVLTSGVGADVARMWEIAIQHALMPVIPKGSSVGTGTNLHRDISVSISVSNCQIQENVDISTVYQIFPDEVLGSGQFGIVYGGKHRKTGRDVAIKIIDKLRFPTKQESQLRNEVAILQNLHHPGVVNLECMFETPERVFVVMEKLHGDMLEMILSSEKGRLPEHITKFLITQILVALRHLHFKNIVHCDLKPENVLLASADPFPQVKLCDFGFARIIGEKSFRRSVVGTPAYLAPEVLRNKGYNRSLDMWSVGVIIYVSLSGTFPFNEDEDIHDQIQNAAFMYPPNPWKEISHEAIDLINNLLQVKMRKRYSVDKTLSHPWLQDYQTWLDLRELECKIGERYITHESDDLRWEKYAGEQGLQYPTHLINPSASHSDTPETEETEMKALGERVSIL
Nature of the assay: In vitro radiometric PKD1 kinase assay. In kind it is biochemical. On the procedure: Kinase reactions were initiated with the addition of ATP (50 µM ATP, 1.0 µCi γ-^33P-ATP; Perkin Elmer, Boston, MA) and incubated for 20 min at 30°C. Twenty-five µL of the reaction was spotted onto Whatman P81 filter paper (Whatman Inc., Clifton, NJ). Filter papers were then washed three times in 0.5% phosphoric acid, air-dried, and counted using an LS6500 multi-purpose scintillation counter (Beckman Coulter, Fullerton, CA). IC50 determinations were performed using GraphPad Prism software 5.0. Radiometric PKD2 and PKD3 in vitro kinase assays were performed as previously described.

Assay [2] has as its target T1, recombinant human PKD1. Nature of the assay: ATP competition studies (radiometric PKD1 assay, Michaelis-Menten/Lineweaver-Burk). In kind it is biochemical. To be noted: PKD1, ATP 12.5–1000 µM. The procedure: For ATP competition studies, recombinant human PKD1 (1 ng/µL) and Syntide-2 substrate peptide (200 ng/µl) in kinase buffer were incubated with a concentration range of test compound. Kinase reactions were initiated with a concentration range of cold ATP (12.5–1000 µM) supplemented with 1.0 µCi γ-^33P-ATP (Perkin Elmer) and processed as described above. Enzyme inhibition was analyzed and visualized using the Michaelis-Menten and Lineweaver-Burk functions of GraphPad Prism 5.0.

Assay [3] concerns the target T2, endogenous PKD1 (Ser916 phosphorylation) in LNCaP prostate cancer cells (Homo sapiens, UniProt Q15139).
T2 construct: phosphorylation of endogenously expressed PKD1 Ser^916; endogenous in cells; host or cells: LNCaP prostate cancer cells
T2 sequence (Q15139 1-912): T1 sequence (Q15139 1-912)
Nature of the assay: Western blot of PMA-induced phospho-Ser916-PKD1 in LNCaP cells. Format: cell-based. To be noted: LNCaP cells; for Concentration dependence of inhibition of PMA-induced endogenous PKD1 activity: Western blot; for inhibition at 50 µM: read-out: Inhibition of phosphorylation of Ser916-PKD1. The procedure:
Briefly, prostate cancer cells (LNCaP) were exposed to test compounds. Cells were lysed in buffer (200 mM Tris-HCl, pH 7.4, 100 µM 4-(2-aminoethyl) benzenesulfonyl fluoride, 1 mM EGTA, and 1% Triton X-100) and cell lysates were subjected to SDS-PAGE then electrotransferred to nitrocellulose membranes. Membranes were blocked with 5% nonfat milk in Tris-buffered saline. Membranes were probed with a primary antibody then followed by a secondary anti-mouse or anti-rabbit secondary antibody conjugated to horseradish peroxidase (1∶1000, Bio-Rad). Bands were visualized by the enhanced chemiluminescence Western blotting detection system (Amersham Biosciences). The primary antibodies included p-S916-PKD1 antibody (Millipore) and GAPDH (Enzo Life Sciences, Plymouth Meeting, PA).
[…] Whole cell lysates were immunoblotted for phosphorylated Ser^916-PKD1 with GAPDH serving as a loading control.

In assay [4] the test system is T3, recombinant human protein kinase D1 (PKD1).
T3 construct: His; purchased Millipore (Billerica, MA)
In words: IMAP-based PKD1 FP high throughput screening assay. In kind it is biochemical. As to conditions: LOPAC screen, 10 µM, duplicate. The procedure: An HTS IMAP-based PKD1 FP assay was developed and used to screen the PMLSC library to identify primary active compounds as previously described, [19]. In brief, the basis for the in vitro homogeneous IMAP PKD1 FP assay is the interaction of nanoparticles with covalent phosphorylated moieties generated when active PKD1 enzyme phosphorylates small, fluorescently labeled substrate peptides. The PKD1 kinase reactions were assembled stepwise by the addition of 3× substrate/ATP (300 nM/60 µM), compound and PKD1 enzyme (0.18 units/mL). Positive (MAX) and negative (MIN) control kinase reactions contained DMSO (1%) and Gö6976 (1 µM) or H-89 (100 µM) in 1% DMSO (final concentrations), respectively. All assay plates were setup in a standard 384-well configuration as previously described and all reagents were prepared in kinase reaction buffer. Kinase reactions were incubated for 90 min at room temperature and then were stopped with the addition of 18 µL of IMAP binding reagents (1∶400) in 1× binding buffer A (proprietary composition, Molecular Devices). These nanoparticles associate with substrate peptide phospho groups creating a larger phosphosubstrate–nanoparticle complex. The phosphosubstrate–nanoparticle binding can be quantified and is expressed as millipolarization (mP) units. […] Assay plates were centrifuged at 50 g for 1 min, incubated at room temperature for 2 hr and FP data were collected on a Molecular Devices SpectraMax M5 (excitation A485/emission A525). This assay was also used in secondary concentration response studies to initially determine IC50 concentrations of compounds. IC50 determinations were performed using GraphPad Prism software 5.0 (La Jolla, CA).
A PKD1 IMAP FP assay was developed and optimized to identify small molecule inhibitors of PKD1 kinase activity. Using this assay system, we screened the LOPAC and PMLSC compound sets (196,425 total compounds) for novel PKD inhibitory chemotypes. […] For the LOPAC screen each compound was evaluated in duplicate at a single concentration (10 µM). […]

The target in assay [5] is T1, recombinant human PKD1. To be noted: cited from earlier work.
Another assay deals with CDK7. Nature of the assay: IMAP-based CDK7 counter screen. In kind it is biochemical. To be noted: concentrations up to 50 µM. From the text:
(§1) It was also gratifying that, in general, our novel cell active PKD1 inhibitors appeared to be less promiscuous than PKD1 inhibitors having minimal to no cellular PKD1 inhibitory activity (Table 1). For example, CIDs 755673 and 1893668 display additional confirmed activity in six and seven, respectively, PubChem bioassays while CID 2011756 has confirmed activity in only one additional PubChem bioassay. […] In contrast, the remaining chemotypes registered as confirmed actives in 2–43 additional bioassays (Table 1). Additional chemical similarity searching, focusing on our four novel cell-active PKD1 inhibitory chemotypes, using MetaDrug also supports a comparative lack of promiscuity of these compounds.

The test system of a further assay is AKT. In words: IMAP-based AKT counter screen. In kind it is biochemical. To be noted: concentrations up to 50 µM.
Description: as §1

Another assay has as its system PLK1. In words: IMAP-based PLK1 counter screen. Format: biochemical. To be noted: concentrations up to 50 µM.
Description: as §1

[6] abbreviates: radiometric PKD1 kinase assay, mean ± range or SD of 2–4 independent experiments, read-out: In vitro PKD1 IC50.
Where [7] appears, read: 50 µM compound 45 min, then PMA 10 nM 20 min.

As to `CC1(C)Oc2ccc3ccc(=O)oc3c2-c2cn[nH]c21` [CID 646236], at recombinant human PKD1 [1] (setting [6]), the IC50 came to 1100 ± 100 nM. For the same molecule, the “Mechanism of Action (with respect to ATP)” value (“Mechanism of Action” for short) at recombinant human PKD1 [2] is recorded as “ATP competitive”.

As to `CC1Cc2ccccc2N1c1ncnc(N)c1[N+](=O)[O-]` (stereo not shown) [CID 2958734], the IC50 on recombinant human PKD1 [1] (setting [6]) is 6100 ± 200 nM. Further, the “Inhibition of phosphorylation of Ser916-PKD1 (in words)” value (from here on “Inhibition … (in words)”) in assay [3] (setting [7]) is listed as “little or no inhibition”. The “Mechanism of Action” value at recombinant human PKD1 [2] is given as “ATP competitive”.

For `CNCCNS(=O)(=O)c1cccc2cnccc12` [H8], the “Inhibition of control signal (primary active)” value (“Inhibition of control signal” for short) in assay [4] is at least 50%.

`Clc1cncc(Cl)c1NNc1ccncc1` [CID 4438738]: the 50% inhibitory concentration (IC50) on recombinant human PKD1 [1] (setting [6]) was found to be 3300 ± 100 nM. At recombinant human PKD1 [2], the “Mechanism of Action” value was “ATP competitive”.

In the case of `O=C1NCCCc2c1oc1ccc(O)cc21` [CID 755673], the “Inhibition … (in words)” value in assay [3] (setting [7]) is on record as “confirmed as a cell active PKD1 inhibitor”. Further, in assay [3], the “Concentration dependence of inhibition of PMA-induced endogenous PKD1 activity” value was “concentration-dependent inhibition”. In addition, the “Mechanism of Action” value at recombinant human PKD1 [5] (previously determined) is listed as “Non-ATP competitive”.

As for `NC(=O)c1cc(-c2ccnc(NC3CCCCC3)c2)nc(N2CCNCC2)c1` [BKPDi], the “Mechanism of Action” value on recombinant human PKD1 [5] (known mechanism of action of the PKD inhibitor BKPDi, listed as BPKDi) is on record as “ATP competitive”.

For `Nc1nc2ccc([N+](=O)[O-])c(N)c2s1` [CID 5086667], the “Inhibition … (in words)” value in assay [3] (setting [7]) is recorded as “some cellular inhibition”. Further, the “Mechanism of Action” value is given as “ATP-competitive inhibitor” on recombinant human PKD1 [2] and “ATP competitive” on recombinant human PKD1 [2] (listed as 5086667).

Turning to `CCC1=NNc2cccc3c(OC)ccc1c23` [CID 2876479], at recombinant human PKD1 [1] (setting [6]), the 50% inhibitory concentration (IC50) came out at 2200 ± 1800 nM. Moreover, the “Inhibition … (in words)” value in assay [3] (setting [7]) is “some cellular inhibition”. Also, on recombinant human PKD1 [2], the “Mechanism of Action” value is on record as “ATP competitive”.

As for `NC(=O)c1cn([C@@H]2O[C@H](CO)[C@@H](O)[C@H]2O)c2ncnc(N)c12` [CID 9549170, sangivamycin, reference compound], on recombinant human PKD1 [1], the IC50 was found to be 400 ± 300 nM. In addition, on recombinant human PKD1 [2], the “Mechanism of Action” value was “ATP competitive”.

For the molecule `O=S(=O)(NCCNC/C=C/c1ccc(Br)cc1)c1cccc2cnccc12` [H89], the “Inhibition of control signal” value in assay [4] is at least 50%.

As for `CC1CNCCN1S(=O)(=O)c1cccc2cnccc12` (stereo not shown) [H7], the “Inhibition of control signal” value in assay [4] was at least 50%.

On to `CCN1/C(=C/C(C)=O)Sc2ccc(OC)cc21` [CID 1893668, (1Z)-1-(3-ethyl-5-methoxy-1,3-benzothiazol-2-ylidene)propan-2-one, reference compound], for which, on recombinant human PKD1 [1] (setting [6]), the IC50 worked out at 1700 ± 300 nM. For the same molecule, in assay [3] (setting [7]), the inhibition at 50 µM was over 50%. Also, the half-maximal effective concentration (EC50) in assay [3] (PMA stimulation, n = 3, read-out: Cellular EC50 (phospho-Ser916-PKD1)) was 52000 ± 14000 nM. Also, in assay [3], the “Concentration dependence of inhibition of PMA-induced endogenous PKD1 activity” value is given as “concentration-dependent inhibition”.

As for `O=C1c2ccccc2-c2onc3ccc(NCCCn4ccnc4)c1c23` [CID 663844], at recombinant human PKD1 [1] (setting [6]), the half-inhibitory concentration (IC50) is 4800 ± 600 nM. Moreover, in assay [3] (setting [7]), the “Inhibition … (in words)” value is on record as “little or no inhibition”.

Turning to “(6Z)-6-[4-(3-aminopropylamino)-6-methyl-1H-pyrimidin-2-ylidene]cyclohexa-2,4-dien-1-one [CID 5389142]”, in assay [3] (setting [7]), the “Inhibition of phosphorylation of Ser916-PKD1” value is “greater than 50%”. Also, the “Concentration dependence of inhibition of PMA-induced endogenous PKD1 activity” value in assay [3] was “concentration-dependent inhibition”. Also, the “Mechanism of Action” value at recombinant human PKD1 [2] is “ATP competitive”. Moreover, the CDK7 kinase inhibition entry in the assay on CDK7 is “no kinase inhibition”. Moreover, the AKT kinase inhibition entry in the assay on AKT was “no kinase inhibition”. The PLK1 kinase inhibition result in the assay on PLK1 is given as “no kinase inhibition”.

As to `NC(N)=NC(=O)c1nc(Cl)c(N)nc1N` [CID 16230, amiloride chloride, reference compound], on recombinant human PKD1 [1] (setting [6]), the IC50 came to 2100 ± 150 nM. In assay [3] (setting [7]), the “Inhibition … (in words)” value is given as “little or no inhibition” and the inhibition at 50 µM is under 50%.
